This passage reports IC50 results from patent US5567693A, “Method for inhibiting angiogenesis, proliferation of endothelial or tumor cells and tumor growth” (American Cyanamid Company, priority 1994, dated 1996).

Where a name gives a salt, the structure may show the parent alone. Read-outs that look alike come from different tables or passages of the source.

One experiment has as its system HTB 161. In words: Antiproliferative activity in human tumor cell lines: HTB 161 (ovarian). The format is cell-based. Conditions: HTB 161 ovarian tumor, PROTOCOL 1 and PROTOCOL 2, 48 hours. As to the method:
The assays are identified as follows:
(§1) PROTOCOL 1,2,and 3 are described in greater detail hereinbelow. In general, according to PROTOCOLS 1 and 2, the target ABAE and/or Human Tumor cells are exposed to the compounds of Formula I for 48 hours. PROTOCOL 3 exposes ABAE cells to the compounds for 4 days. A detailed description of the protocols is as follows:
(§2) The antiproliferative activity of the compounds of Formula I of the present invention is evaluated in a panel comprised of human tumor cell lines and an adult bovine aortic endothelial cell line (ABAE). The human tumor cell lines are from
Cultures are renewed after 20 passages with cells from a fresh stock of batch-frozen early passage cells. Cell lines are routinely checked for mycoplasma contamination (Genprobe). In a laminar flow hood, cells (1-5×10^4) are plated into 96-well microtiter plates in a volume of 0.1 ml/well with a bulk microtiter dispenser (Denley). […] Compounds are added using a Tomtec dispenser which simultaneously dispenses from one 96-well plate, containing the drug dilutions, to the plates containing the cells. After two days of continuous drug exposure, 50% cold trichloroacetic acid (TCA) is added to 10% final concentration to fix the cells, and after 60 minutes at 4° C., the TCA is aspirated and the plates are washed 5 times with deionized water using a microtiter plate washer. […] A 0.4% solution of the dye, sulforhodamine B, in […] is added to the plates, and the plates are washed 5 times with 1% glacial acetic acid using the automatic plate washed. The bound stain is solubilized with 0.1 ml of 10 mM Tris base. The optical densities are read from an automatic spectrophotometric plate reader (Dynatech) directly to a main frame computer (VAX 8600).
(§3) Positive controls, that include standard chemotherapeutic drugs (i.e., Adriamycin, Cisplatin, etc.), are included in every experiment.
(§4) Background optical density measurements (complete media-cells, and complete media+drug-cells) are automatically subtracted from the appropriate control and test wells. Mean values and standard errors are determined from duplicate wells. A measure is also made of the optical density at time when the drugs are added. The number of cells after treatment (P), as % of control, is calculated for every concentration of drug, as follows: [formula] wherein: T is optical density measurement for treated cells after 48 hours;
(§5) C is optical density measurement for untreated cells after 48 hours;
(§6) Co is optical density measurement for cells at the time of drug addition.
(§7) IC50 of growth inhibition is calculated from the sets of P values using the RS-1 data package (BBN Software).
(§8) The antiproliferative activity of the compounds of Formula I is evaluated in a panel comprised of human tumor cell lines and an adult bovine aortic cell line (ABAE) as listed in PROTOCOL 1. This assay is a modification of PROTOCOL 1. The modifications include:
(§9) 1) each concentration for each compound is tested in a single well;
(§10) 2) compounds are tested at 20, 4, 0.8, 0.16 microgram/ml and additionally in some experiments at 100 and 0.32 microgram/ml;
(§11) 3) samples are pipetted into a 96-well plate for each of the cell lines by a Beckman Biomek 1000 SL robot;
(§12) 4) after fixing with TCA each well is washed with 0.35 ml distilled water twice, not five times;
5) after staining with sulforhodamine B each well is washed 3 times, not five times;
6) the growth inhibition (I) as % of control, is calculated using the RS-1 data package (BBN Software), for every concentration of drug, as follows: [formula] wherein: T is optical density measurement for treated cells after 48 hours;
7) IC50 of growth inhibition is determined graphically from dose response curves, as is known in the art.

The test system of a further experiment is SW620. In words: Antiproliferative activity in human tumor cell lines: SW620 (colon). The format is cell-based. As to the method: The antiproliferative activity of the compounds of Formula I in an Adult Bovine Aortic Endothelial (ABAE) cell line and in Human Tumor cell lines is evaluated in three similar assays that measure growth inhibition. The assays are identified as follows:
as §1, §2
All cell lines are maintained in log phase in RPMI 1640 media, supplemented with 5% fetal calf serum, penicillin/streptomycin and 2 mM L-glutamine. Cultures are renewed after 20 passages with cells from a fresh stock of batch-frozen early passage cells. Cell lines are routinely checked for mycoplasma contamination (Genprobe). In a laminar flow hood, cells (1-5×10^4) are plated into 96-well microtiter plates in a volume of 0.1 ml/well with a bulk microtiter dispenser (Denley). […] At this concentration, dimethylsulfoxide has no effect on cell growth. Compounds are added using a Tomtec dispenser which simultaneously dispenses from one 96-well plate, containing the drug dilutions, to the plates containing the cells. After two days of continuous drug exposure, 50% cold trichloroacetic acid (TCA) is added to 10% final concentration to fix the cells, and after 60 minutes at 4° C., the TCA is aspirated and the plates are washed 5 times with deionized water using a microtiter plate washer. The number of cells on the plate are quantitated using a protein dye-binding assay (Monks et al., 1991). A 0.4% solution of the dye, sulforhodamine B, in glacial acetic acid is added to the plates, and the plates are washed 5 times with 1% glacial acetic acid using the automatic plate washed. The bound stain is solubilized with 0.1 ml of 10 mM Tris base. The optical densities are read from an automatic spectrophotometric plate reader (Dynatech) directly to a main frame computer (VAX 8600).
as §3, §4, §5, §6, §7, §8, §9, §10, §11, §12
5) after staining with sulforhodamine B each well is washed 3 times, not five times; […]

Setting [1] is: SW-620, SW620 colon tumor, PROTOCOL 1 and PROTOCOL 2, 48 hours, read-out: IC50.

As usually defined, the IC50 is the concentration needed to halve the response being measured. Take `CN(C)[C@@H]1C(O)=C(C(N)=O)C(=O)[C@@]2(O)C(O)=C3C(=O)c4c(cc(Cl)c(NC(=O)CN5CCCCC5)c4O)CC3CC12` (stereo partly drawn) [Example 10, 7S-(7α,10aα)]-N-[9-(Aminocarbonyl)-3-chloro-7-(dimethylamino)-5,5a,6,6a,7,10,10a,12-octahydro-1,8,10a,11-tetrahydroxy-10,12-dioxo-2-naphthacenyl]-1-piperidineacetamide dihydrochloride]: the IC50 was found to be 0.6 mg/L in the experiment with HTB 161 and 0.6 mg/L with SW620 (SW-620, 48 h).
With `CNCC(=O)Nc1c(Cl)cc2c(c1O)C(=O)C1=C(O)[C@]3(O)C(=O)C(C(N)=O)=C(O)[C@@H](N(C)C)C3CC1C2` (stereo partly drawn) [Example 7, [4S-(4α, 12aα)]-8-Chloro-4-(dimethylamino)-1,4,4a,5,5a,6,11,12a-octahydro-3,10,12,12a-tetrahydroxy-1,11-dioxo-9-[[(methylamino)acetyl]amino]-2-naphthacenecarboxamide dihydrochloride], the IC50 in the experiment on HTB 161 is 1.3 mg/L; in the experiment with SW620 (setting [1]), 4 mg/L.
Consider `CN(C)CC(=O)Nc1c(Cl)cc2c(c1O)C(=O)C1=C(O)[C@]3(O)C(=O)C(C(N)=O)=C(O)[C@@H](N(C)C)C3CC1C2` (stereo partly drawn) [Example 3, [4S-(45, 12aα)]-8-Chloro-4-(dimethylamino)-9[[(dimethylamino)acetyl]amino]-1,4,4a,5,5a,6,11,12a-octahydro-3,10,12,12a-tetrahydroxy-1,11-dioxo-2-naphthacenecarboxamide disulfate], for which the IC50 stood at 1 mg/L in the experiment on HTB 161 and 2.3 mg/L in the experiment on SW620 (setting [1]).
As for `CN(C)[C@@H]1C(O)=C(C(N)=O)C(=O)[C@@]2(O)C(O)=C3C(=O)c4c(cc(Cl)c(NC(=O)CN5CCCC5)c4O)CC3CC12` (stereo partly drawn) [Example 9, [7S-(7α,10aα)]-N-[9-(Aminocarbonyl)-3-chloro-7-(dimethylamino)-5,5a,6,6a,7,10,10a,12-octahydro-1,8,10a,11-tetrahydroxy-10,12-dioxo-2-naphthacenyl]-1-pyrrolidineacetamide dihydrochloride], the IC50 stood at 1.9 mg/L with HTB 161 and 2 mg/L in the experiment with SW620 (SW-620, 48 h).
For `CCCNCC(=O)Nc1c(Cl)cc2c(c1O)C(=O)C1=C(O)[C@]3(O)C(=O)C(C(N)=O)=C(O)[C@@H](N(C)C)C3CC1C2` (stereo partly drawn) [Example 5, [4S-(4α, 12aα)]-8-Chloro-4-(dimethylamino)-1,4,4a,5,5a, 6,11,12a-octahydro-3,10,12,12a-tetrahydroxy-1,11-dioxo-9-[[(propylamino)acetyl]amino]-2-naphthacenecarboxamide dihydrochloride], the IC50 in the experiment on HTB 161 came to 4 mg/L; with SW620 (setting [1]) it was 3.5 mg/L.
Taken in the same sequence, the figures for `CN(C)c1c(Cl)cc(O)c2c1CC1CC3[C@H](N(C)C)C(O)=C(C(N)=O)C(=O)[C@@]3(O)C(O)=C1C2=O` (stereo partly drawn) [Example 11, [4S-(4α,12aα)]-8-Chloro-4,7-bis(dimethylamino)-1,4,4a,5,5a,6,11,12a-octahydro-3,10,12,12a-tetrahydroxy-1,11-dioxo-2-naphthacenecarboxamide sulfate] were 0.7 mg/L and 4.5 mg/L.
In the case of `CCCCCNCC(=O)Nc1c(Cl)cc2c(c1O)C(=O)C1=C(O)[C@]3(O)C(=O)C(C(N)=O)=C(O)[C@@H](N(C)C)C3CC1C2` (stereo partly drawn) [Example 6, [4S-(4α, 12aα)]-8-Chloro-4-(dimethylamino)-1,4,4a,5,5a,6,11,12a-octahydro-3,10,12,12a-tetrahydroxy-1,11-dioxo-9-[[(pentylamino)acetyl]amino]-2-naphthacenecarboxamide dihydrochloride], the IC50 amounted to 0.5 mg/L in the experiment with HTB 161 and 0.8 mg/L in the experiment on SW620 (SW-620, 48 h).
Take `CCCCNCC(=O)Nc1c(Cl)cc2c(c1O)C(=O)C1=C(O)[C@]3(O)C(=O)C(C(N)=O)=C(O)[C@@H](N(C)C)C3CC1C2` (stereo partly drawn) [Example 4, [4S-(4α, 12aα)]-9-[[(Butylamino)acetyl]amino]-8-chloro-4-(dimethylamino) -1,4,4a,5,5a,6,11,12a-octahydro-3,10,12,12a-tetrahydroxy-1,11-dioxo-2-naphthacenecarboxamide dihydrochloride]: the IC50 in the experiment with HTB 161 was 1.2 mg/L; with SW620 (setting [1]), 2.8 mg/L.
On to `CN(C)[C@@H]1C(O)=C(C(N)=O)C(=O)[C@@]2(O)C(O)=C3C(=O)c4c(cc(Cl)c(NC(=O)CNCC5CC5)c4O)CC3CC12` (stereo partly drawn) [Example 8, [4S-(4α,12aα)]-8-Chloro-9-[[(cyclopropylmethylamino)-acetyl]amino]4-(dimethylamino)-1,4,4a,5,5a,6,11,12a-octahydro-3,10,12,12a-tetrahydroxy-1,11-dioxo-2-naphthacenecarboxamide dihydrochloride], for which the IC50 in the experiment on HTB 161 stood at 1 mg/L; in the experiment with SW620 (setting [1]), 2.4 mg/L.
